Data: PMC7098963, “Pharmacophore-Based Virtual Screening Toward the Discovery of Novel Anti-echinococcal Compounds” (Frontiers in Cellular and Infection Microbiology, 2020)
Where two headings read alike, the source gives them in different places.

How the values were obtained:
[1] = tested on: E. multilocularis protoscoleces; test: In vitro drug screen with E. multilocularis protoscoleces (methylene blue exclusion); assay type: cell-based; settings: Echinococcus multilocularis, read-out: LC50 E. multilocularis PSC
Method: In vitro treatment of PSCs was performed in 96-well microtiter plates (Costar, USA) containing 100 PSCs per 200 μl. A solution of the test compound (6.25~100 μM) was added to each well. Nitazoxanide and mebendazole (25 μM) were used as positive controls, while RPMI 1640 medium and RPMI 1640 with 0.25% DMSO were used as negative controls. […] All experiments were carried out in triplicate and repeated at least twice.

Chang liver cells = test: Cytotoxicity test, Chang liver cells (CCK-8); assay type: cell-based; settings: for Tox50 Changliver cell: 72 h, CCK-8, 6.25~100 μM; for inhibition at 100 µM: Chang liver, read-out: inhibition rate, Chang liver cell
Method: (§1) Cytotoxicity was determined using Chang liver cells and A172 cells in DMEM with 10% FBS as previously described (Liu et al., [2018]). The final concentrations of the test compounds were 3.125~50 μM for A172 cells and 6.25~100 μM for Chang liver cells. After 72 h, the cell viabilities were determined using a CCK-8 kit. The concentration that induced 50% cell toxicity (Tox50) was then calculated.

E. multilocularis = test: Compound efficacy in E. multilocularis-infected mice; settings: for Mean cyst weight reduction (inhibition rate) / treatment efficacy versus control group, in words: 28 days; for Mean cyst weight reduction (inhibition rate): infected BALB/c mice; for deaths of mice during the 28-days treatment: n = 10; for treatment efficacy versus control group, in words: 25 and 50 mg/kg/day oral
Method: E. multilocularis-infected animals [BALB/c mice (SLAC Laboratory Animal Center)] were maintained by serial i.p. transplantation passages through for 6 months, the details can be found in our published paper (Liu et al., [2019]). Eighty infected BALB/c mice were prepared for in vivo treatment experiments. Parasite materials were isolated from the peritoneal cavity of the infected animals and homogenized with Hanks' balanced salt solution (HBSS). Then, after passing the parasite homogenate through a 60-mesh sieve, the E. multilocularis PSCs were collected and rinsed 5~8 times. The viability of the PSCs was determined by the methylene blue exclusion method (Liu et al., [2018]), and PSCs with > 95% viability were used in the following experiments. The PSCs were cultured in RPMI 1,640 medium supplemented with 10% CS and antibiotics (100 U/ml penicillin G and 100 μg/ml streptomycin) at 37°C in 5% CO2.
The remaining mice were orally administered 1% tragacanth solution (1% TRA) as a control. All of the mice were euthanized 2 weeks after finishing the treatment, and all of the cysts were isolated and weighed. The efficacy of the treatments was assessed based on the mean cyst weight as previously described (Liu et al., [2015]).
The LC50 and Tox50 values were calculated by the probability unit method with SPSS version 17.0. The differences in mean cyst weight were analyzed by ANOVA in SPSS 17.0, and P < 0.05 was considered statistically significant.

[2] = Pharmacokinetics analysis in plasma of mice; assay type: in vivo, BALB/c mice; settings: for MRT last: read-out: MRT(0–t)
Method: To study the relationship between pharmacokinetic characteristics and treatment efficacy in vivo, compounds were administered by oral (50 mg/kg) and intramuscular (12.5 mg/kg) methods to healthy BALB/c mice ([…]). Subgroups of 3 mice each were bled at 0.25, 0.5, 1, 2, 4, 8, 16, 24, 32, and 48 h post-administration. Then, 300 μl samples of plasma were collected and centrifuged at 2,500 g for 15 min. The compounds in the plasma were extracted on Oasis HLB cartridges (Waters, Massachusetts, USA) with praziquantel as the internal standard. The HPLC-HRMS system used for separation and analysis consisted of an Accela 1250 pump, a PAL HTC autosampler, an Accela PDA detector and an Xcalibur data system (Thermo Fisher Scientific, Waltham, MA, USA). Compounds were separated on a 3-μm Waters Atlantis 2.1 mm × 100 mm column (Massachusetts, USA) with a mobile phase containing methanol and formic acid at a flow rate of 0.35 ml/min. The data were analyzed by the non-compartmental model present in DAS 2.0 (Drug Analysis System, Shanghai University of T.C.M, China). Detailed pharmacokinetic experimental methods, including a representative HPLC-MS chromatogram, a standard curve, and a plot used to confirm precision, are shown in the Supplementary Data.

A172 cells = test: Cytotoxicity test, A172 cells (CCK-8); assay type: cell-based; settings: for Tox50 A172 cell: 72 h, CCK-8, 3.125~50 μM; for effect on proliferation of cancer cells (A172 cells), in words: CCK-8
Method: as §1

[3] = Pharmacokinetics analysis in plasma of mice; assay type: in vivo, BALB/c mice; settings: drug and plasma samples left overnight
[4] = 72 h incubation, 6.25~100 μM, methylene blue exclusion
[5] = BALB/c, im, mouse plasma, intramuscular 12.5 mg/kg
[6] = BALB/c, mouse, plasma, im, 12.5 mg/kg, intramuscular 12.5 mg/kg, read-out: Cmax
[7] = BALB/c, mouse, plasma, po, 50 mg/kg, oral 50 mg/kg, read-out: Cmax
[8] = BALB/c, mouse plasma, oral 50 mg/kg
[9] = mouse plasma, intramuscular 12.5 mg/kg

## COc1cccc(NC(=O)CN(C)CC(=O)Nc2ccc(F)c(Cl)c2)c1 [Compound S1]
[1]; [4]
  LC50: 20.4 ± 0.51 µM
Chang liver cells
  Tox50 Changliver cell: 43.98 ± 1.38 µM

## COC(=O)Nc1nc2ccc(C(=O)c3ccccc3)cc2[nH]1 [MBZ, mebendazole, reference compound]
E. multilocularis; 25 mg/kg/day oral gavage
  Mean cyst weight reduction (inhibition rate): 39.66%
E. multilocularis; 25 mg/kg/day oral
  deaths of mice during the 28-days treatment: 1 mice

## OC(CN1CCCCC1)Cn1c2ccc(Cl)cc2c2cc(Cl)ccc21 (stereo not drawn) [HT3]
E. multilocularis; 25 mg/kg/day oral
  deaths of mice during the 28-days treatment: 2 mice
E. multilocularis; 50 mg/kg/day oral
  deaths of mice during the 28-days treatment: 3 mice
E. multilocularis
  treatment efficacy versus control group, in words: ineffective
[2]; [5]
  Tmax: 1 h
  MRT last: 18.1 ± 2.38 h
[2]; [6]
  Cmax: 39.6 ± 11.2 ng/mL
[2]; [7]
  Cmax: 122 ± 42.6 ng/mL
[2]; [8]
  Tmax: 0.33 ± 0.14 h
  MRT last: 4.16 ± 0.85 h

## COc1ccc([C@H]2CCCN2CC(=O)NCc2cccc(Cl)c2)c(OC)c1 [Compound S59]
[1]; [4]
  LC50: 19.6 ± 0.56 µM
Chang liver cells
  Tox50 Changliver cell: 66.53 ± 2.99 µM

## Cc1ccnc(NC(=O)C2CCN(CCC(=O)Nc3ccc4c(c3)CCC4)CC2)c1 [Compound S31]
[1]; 72 h
  LC50: 19.2 ± 0.8 µM

## O=C(CC1CCC(c2c[nH]c3ccccc23)CC1)Nc1cccc(Cl)c1 (stereo not drawn) [Compound S5]
[1]; [4]
  LC50: 18.6 ± 1 µM
A172 cells
  Tox50 A172 cell: 11.98 ± 0.91 µM
  effect on proliferation of cancer cells (A172 cells), in words: inhibited the proliferation
Chang liver cells
  Tox50 Changliver cell: 42.44 ± 0.34 µM

## CCN(CC(=O)Nc1cc(Cl)cc(Cl)c1)Cc1nc(=O)c2ccc(Cl)cc2[nH]1 [Compound S28]
[1]; [4]
  LC50: 19.9 ± 0.31 µM
A172 cells
  Tox50 A172 cell: 20.99 ± 4.12 µM
  effect on proliferation of cancer cells (A172 cells), in words: inhibited the proliferation
Chang liver cells
  Tox50 Changliver cell: 35.41 ± 0.62 µM

## O=C(CC1CCC(c2c[nH]c3ccccc23)CC1)Nc1cc(Cl)ccc1Cl (stereo not drawn) [Compound S6]
[1]; 72 h
  LC50: 17 ± 0.93 µM
A172 cells
  Tox50 A172 cell: 11.00 ± 5.00 µM
  effect on proliferation of cancer cells (A172 cells), in words: inhibited the proliferation
Chang liver cells
  inhibition at 100 µM: 24.6%
E. multilocularis; 25 mg/kg/day oral gavage
  Mean cyst weight reduction (inhibition rate): 9.53%
E. multilocularis; 50 mg/kg/day oral gavage
  Mean cyst weight reduction (inhibition rate): 14.43%
E. multilocularis
  treatment efficacy versus control group, in words: no significant difference
[2]; [7]
  Cmax: 1 ng/mL
[2]; [8]
  Tmax: 4.33 ± 3.51 h
  MRT last: 4.34 ± 2.59 h
[2]; [9]
  plasma concentration, in words: below the detection limit
[2]; mouse plasma, oral 50 mg/kg
  AUC(0–t): 5.10 ± 4.64 ng·h/mL
[2]; mouse plasma, oral 50 mg/kg, 50 mg/kg
  Cmax: 1.55 ± 1.01 ng/mL
[3]
  stability in plasma samples: detectable concentration: greatly reduced

## CN(C)[C@@H](CNC(=O)C[C@H]1Sc2ccc(Cl)cc2NC1=O)Cc1ccccc1 [Compound S39]
[1]; [4]
  LC50: 17.7 ± 0.74 µM
Chang liver cells
  Tox50 Changliver cell: 51.46 ± 3.34 µM

## C[C@H](C(=O)N(C)Cc1ccccc1)N(C)CC(=O)Nc1cccc2ccccc12 [Compound S19]
[1]; [4]
  LC50: 18.8 ± 1.7 µM
A172 cells
  Tox50 A172 cell: 22.54 ± 1.79 µM
  effect on proliferation of cancer cells (A172 cells), in words: inhibited the proliferation
Chang liver cells
  inhibition at 100 µM: 36.5%

## OC(COc1ccc(F)cc1)CN1CCN(C(c2ccccc2)c2ccccc2)CC1 (stereo not drawn) [BTB4]
E. multilocularis; 25 mg/kg/day oral
  deaths of mice during the 28-days treatment: 2 mice
E. multilocularis; 50 mg/kg/day oral
  deaths of mice during the 28-days treatment: 4 mice
E. multilocularis
  treatment efficacy versus control group, in words: ineffective
[2]; [5]
  Tmax: 4.67 ± 3.06 h
  MRT last: 16 ± 1.13 h
[2]; [6]
  Cmax: 86.4 ± 4.02 ng/mL
[2]; [7]
  Cmax: 225 ± 55.4 ng/mL
[2]; [8]
  Tmax: 2 h
  MRT last: 8.08 ± 1.55 h
[2]; [9]
  AUC(0–t): 1589.90 ± 165.13 ng·h/mL
[2]; mouse plasma, oral 50 mg/kg
  AUC(0–t): 1692.29 ± 341.00 ng·h/mL

## CN(CC(=O)Nc1cccc(F)c1)CC(=O)Nc1cccc2ccccc12 [Compound S16]
[1]; [4]
  LC50: 17.4 ± 0.2 µM
A172 cells
  Tox50 A172 cell: 21.00 ± 6.24 µM
  effect on proliferation of cancer cells (A172 cells), in words: inhibited the proliferation
Chang liver cells
  inhibition at 100 µM: 34.6%

## Cc1ccc(C)c(NC(=O)CC2CCC(c3c[nH]c4ccccc34)CC2)c1 (stereo not drawn) [Compound S11]
[1]; [4]
  LC50: 18.7 ± 0.87 µM
A172 cells
  Tox50 A172 cell: 22.72 ± 1.37 µM
  effect on proliferation of cancer cells (A172 cells), in words: inhibited the proliferation
Chang liver cells
  inhibition at 100 µM: 42.1%
